Experiments:
T cell = experiment: Annexin V/PI apoptosis detection, T cells; format: cell-based; conditions: 10 and 20 μM
Experimental: (§1) Cell apoptosis was detected with Annexin V/PI apoptosis detection Kit. Briefly, cells were stimulated with HSLs or left untreated. 6 hrs later, cells were collected and stained with Annexin VFITC and PI for 15 min at RT, then the apoptotic effect was measured by flow cytometry. OT-I or OT-II splenocytes were pulsed with specific peptides or PMA and ionomycin mixture with or without HSLs or TNF α plus cycloheximide. 24 hrs later, cells and supernatants were collected separately. For OT-I activation, cells were stained with CD69 and CD8. For OT-II activation, cells were stained with CD69 and CD4. Cell activation was measured by flow cytometry. All supernatants were detected for IL-2 secretion by ELISA.

thymoma line EL4 = experiment: Annexin V/PI apoptosis detection, EL4; format: cell-based
Experimental: as §1

[1] = system: transformed DC line DC2.4; experiment: Annexin V/PI apoptosis detection, DC2.4; format: cell-based
Experimental: as §1

reticuloma A20 = experiment: Annexin V/PI apoptosis detection, A20; format: cell-based
Experimental: as §1

THP-1 cell line = experiment: Annexin V/PI apoptosis detection, THP-1; format: cell-based, human; conditions: THP-1
Experimental: as §1
In order to verify TNFR1-FADD-caspase8-caspase3 pathway inhibitor can block immunocyte apoptosis caused by 3OC12-HSL clinically. The inventors use a clinical version of caspase inhibitor Emricasan as a test. […] To be specific, in a 12 plate, THP-1 cells were cultured with indicated concentrations of 3OC and Emricasan. After 1 hr, cells were collection for flow cytometric analysis of AnnexinV and PI. […] In FIG. 17b, live cell percentage of different treatment were enumerated by flow cytometry. Bar graphs of live cell percentage are depicted by mean±SEM. Then samples prepared as in FIG. 17a and FIG. 17b were used for WB analysis for the activation (cleavage) of Caspase 8 and 3. […]

lymphoblast H9 = experiment: Annexin V/PI apoptosis detection, H9; format: cell-based, human
Experimental: as §1

[2] = system: thioglycolate-induced macrophages; experiment: Annexin V/PI apoptosis detection, macrophages; format: cell-based
Experimental: as §1

caspases 8 and 3 = experiment: Caspase 8 and 3 cleavage in human cells (Western blot); format: cell-based; conditions: human (FIGS. 3a and b)
TNFR1 (1-293) mutant = target: T1, TNFR1 (1-293) mutant (Homo sapiens, UniProt P19438); experiment: Single molecule photo-bleaching step counting (MSFQ), TNFR1 in HELA cells; format: cell-based; conditions: DD-deleted TNFR1-eGFP
T1 construct: human TNFR1 (1-293) mutant was amplified from human TNFR1 with specific primers and cloned into peGFP-N1 vector; expressed in transfected cells; host or cells: HeLa cells
T1 sequence (P19438 30-293): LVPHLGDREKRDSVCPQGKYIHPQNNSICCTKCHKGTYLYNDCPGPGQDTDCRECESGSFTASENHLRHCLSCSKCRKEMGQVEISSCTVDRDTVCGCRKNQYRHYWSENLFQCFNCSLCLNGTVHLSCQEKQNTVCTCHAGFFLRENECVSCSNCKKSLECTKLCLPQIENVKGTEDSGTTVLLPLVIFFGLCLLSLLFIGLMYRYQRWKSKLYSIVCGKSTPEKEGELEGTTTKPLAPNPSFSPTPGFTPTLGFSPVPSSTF
Description: Then the cells were stimulated with HSLs, TNF α, or left untreated, and washed twice with PBS and fixed with 4% paraformaldehyde before imaging. GFP was excited at 488 nm with a laser power of 5 mW measured after the laser passing through the objective. […] The EM gain of the EMCCD camera was set at 300. Movies of 400 frames were acquired for each sample at a full-frame rate of 10 Hz. For imaging analysis, the background fluorescence was firstly subtracted from the movie acquired from the fixed cells using the rolling ball method in Image J software, and regions of interest on movies were selected manually according to the outline of cells. To analyze the bleaching steps, the fluorescence time courses of each fluorescent spots were first constructed by Image J plugin and bleaching steps were then counted manually.

CCCCCCCCCC(=O)CC(=O)N[C@H]1CCOC1=O [3OC12 HSL, N-(3-oxo-dodecanoyl) homoserine lactone]
T cell death (T cell): significant T cell death
sensitivity to 3OC12 HSL (thymoma line EL4): sensitive
sensitivity to 3OC12 HSL [1]: sensitive
sensitivity to 3OC12 HSL (reticuloma A20): sensitive
sensitivity to 3OC12 HSL (THP-1 cell line): sensitive
sensitivity to 3OC12 HSL (lymphoblast H9): relatively resistant
sensitivity to 3OC12 HSL [2]: relatively resistant
caspase 8 and 3 cleavage (caspases 8 and 3): cleaved in a dose and time-dependent manner
three step bleaching frequency (TNFR1 (1-293) mutant; untreated 7.1): 17.0+/−1.3%
one step bleaching frequency (TNFR1 (1-293) mutant; untreated 60.0): 47.1%
